Test results published in ChEMBL document CHEMBL4219086, “Development of benzoxazole deoxybenzoin oxime and acyloxylamine derivatives targeting innate immune sensors and xanthine oxidase for treatment of gout” (Bioorg Med Chem, 2018).
The source made the active and inactive calls. The calls are words filed in the database; no cut-off is given here.

Assays:
[1] = biological target: Xanthine dehydrogenase/oxidase (Homo sapiens, UniProt P47989); assay: Competitive inhibition of Xanthine oxidase (unknown origin) using xanthine as substrate preincubated for 1 to 5 mins followed by substrate addition by Lineweaver-Burk plot analysis
[2] = biological target: NACHT, LRR and PYD domains-containing protein 3 (Homo sapiens, UniProt Q96P20); assay: Inhibition of NLRP3 inflammasome in human THP1 cells assessed as reduction in MSU-induced IL-1beta production preincubated for 1 hr followed by MSU stimulation measured after 6 hrs; format: cell-based
[3] = biological target: Toll-like receptor 4 (Homo sapiens, UniProt O00206); assay: Inhibition of human TLR4 signaling expressed in HEK-Blue cells co-expressing MD2/CD14 assessed as reduction in LPS-induced NF-kappaB activation-mediated SEAP production preincubated for 2 hrs followed by LPS stimulation for 20 hrs by colorimetric assay; format: cell-based
[4] = test system: Mus musculus; assay: Anti-hyperuricemic effect in Kunming mouse assessed as inhibition of potassium oxonate-induced serum uric acid level administered po 1 hr post potassium oxonate addition measured after 1 hr by phosphotungstic acid method; format: functional, organism-based
[5] = test system: Mus musculus; assay: In vivo inhibition of XOD activity in liver of Kunming mouse model of potassium oxonate-induced hyperuricemia at 5 mg/kg, po treated 1 hr post potassium oxonate addition measured after 1 hr relative to control; format: functional
[6] = test system: Mus musculus; assay: In vivo inhibition of XOD activity in liver of Kunming mouse model of potassium oxonate-induced hyperuricemia at 10 mg/kg, po treated 1 hr post potassium oxonate addition measured after 1 hr relative to control; format: functional
[7] = test system: Mus musculus; assay: In vivo inhibition of XOD activity in liver of Kunming mouse model of potassium oxonate-induced hyperuricemia administered po 1 hr post potassium oxonate addition measured after 1 hr; format: functional, organism-based
[8] = test system: Mus musculus; assay: Hypouricemic effect in Kunming mouse assessed as inhibition of hepatic XOD activity at 2.5 mg/kg, po measured after 1 hr relative to control; format: organism-based
[9] = test system: Mus musculus; assay: Hypouricemic effect in Kunming mouse assessed as inhibition of hepatic XOD activity at 5 mg/kg, po measured after 1 hr relative to control; format: organism-based
[10] = test system: Mus musculus; assay: Hypouricemic effect in Kunming mouse assessed as inhibition of hepatic XOD activity at 10 mg/kg, po measured after 1 hr relative to control; format: organism-based
[11] = test system: Rattus norvegicus; assay: (§1) Antiarthritic activity in MSU-induced acute gouty arthritis Sprague-Dawley rat model assessed as reduction in ankle swelling by measuring perimeter of ankle at 2.5 mg/kg, po qd pretreated via gavage for 5 days followed by MSU treatment at 1 hr post last dose measured immediately (reference value: 2.64 +/- 0.81 cm); format: functional
[12] = test system: Rattus norvegicus; assay: as §1, with “5” for “2.5”; format: functional
[13] = test system: Rattus norvegicus; assay: as §1, with “10” for “2.5”; format: functional
[14] = test system: Rattus norvegicus; assay: as §1, with “after 2 hrs” for “immediately”, “2.82” for “2.64”, “0.75” for “0.81”; format: functional
[15] = test system: Rattus norvegicus; assay: as §1, with “5” for “2.5”, “after 2 hrs” for “immediately”, “2.82” for “2.64”, “0.75” for “0.81”; format: functional
[16] = test system: Rattus norvegicus; assay: as §1, with “5” for “2.5”, “after 4 hrs” for “immediately”, “3.18” for “2.64”, “0.64” for “0.81”; format: functional
[17] = test system: Rattus norvegicus; assay: as §1, with “10” for “2.5”, “after 4 hrs” for “immediately”, “3.18” for “2.64”, “0.64” for “0.81”; format: functional
[18] = test system: Rattus norvegicus; assay: as §1, with “after 8 hrs” for “immediately”, “3.27” for “2.64”, “0.56” for “0.81”; format: functional
[19] = test system: Rattus norvegicus; assay: as §1, with “5” for “2.5”, “after 8 hrs” for “immediately”, “3.27” for “2.64”, “0.56” for “0.81”; format: functional
[20] = test system: Rattus norvegicus; assay: as §1, with “10” for “2.5”, “after 8 hrs” for “immediately”, “3.27” for “2.64”, “0.56” for “0.81”; format: functional
[21] = test system: Rattus norvegicus; assay: as §1, with “5” for “2.5”, “after 12 hrs” for “immediately”, “3.51” for “2.64”, “0.52” for “0.81”; format: functional
[22] = test system: Rattus norvegicus; assay: as §1, with “after 24 hrs” for “immediately”, “3.35” for “2.64”, “0.5” for “0.81”; format: functional
[23] = test system: Rattus norvegicus; assay: as §1, with “10” for “2.5”, “after 24 hrs” for “immediately”, “3.35” for “2.64”, “0.5” for “0.81”; format: functional
[24] = test system: Rattus norvegicus; assay: Inhibition of MSU-induced TNFalpha level in serum of acute gouty arthritis Sprague-Dawley rat model at 2.5 to 10 mg/kg, po qd pretreated via gavage for 5 days followed by MSU treatment at 1 hr post last dose measured up to 24 hrs by ELISA; format: functional, organism-based
[25] = test system: Rattus norvegicus; assay: Inhibition of MSU-induced IL-1beta level in synovial homogenate of acute gouty arthritis Sprague-Dawley rat model at 2.5 to 10 mg/kg, po qd pretreated via gavage for 5 days followed by MSU treatment at 1 hr post last dose measured up to 24 hrs by ELISA; format: functional, organism-based
[26] = test system: Rattus norvegicus; assay: Inhibition of MSU-induced NLRP3 protein level in synovial homogenate of acute gouty arthritis Sprague-Dawley rat model at 2.5 to 10 mg/kg, po qd pretreated via gavage for 5 days followed by MSU treatment at 1 hr post last dose measured up to 24 hrs by Western blot method; format: functional, organism-based
[27] = test system: Rattus norvegicus; assay: Inhibition of MSU-induced ASC protein level in synovial homogenate of acute gouty arthritis Sprague-Dawley rat model at 2.5 to 10 mg/kg, po qd pretreated via gavage for 5 days followed by MSU treatment at 1 hr post last dose measured up to 24 hrs by Western blot method; format: functional, organism-based
[28] = test system: Rattus norvegicus; assay: Inhibition of MSU-induced caspase-1 protein level in synovial homogenate of acute gouty arthritis Sprague-Dawley rat model at 2.5 to 10 mg/kg, po qd pretreated via gavage for 5 days followed by MSU treatment at 1 hr post last dose measured up to 24 hrs by Western blot method; format: functional, organism-based
[29] = test system: Rattus norvegicus; assay: Inhibition of MSU-induced TLR4 protein level in synovial homogenate of acute gouty arthritis Sprague-Dawley rat model at 2.5 to 10 mg/kg, po qd pretreated via gavage for 5 days followed by MSU treatment at 1 hr post last dose measured up to 24 hrs by Western blot method; format: functional, organism-based
[30] = test system: Rattus norvegicus; assay: Inhibition of MSU-induced MyD88 protein level in synovial homogenate of acute gouty arthritis Sprague-Dawley rat model at 2.5 to 10 mg/kg, po qd pretreated via gavage for 5 days followed by MSU treatment at 1 hr post last dose measured up to 24 hrs by Western blot method; format: functional, organism-based

Toll-like receptor 4, sequence (O00206 whole entry): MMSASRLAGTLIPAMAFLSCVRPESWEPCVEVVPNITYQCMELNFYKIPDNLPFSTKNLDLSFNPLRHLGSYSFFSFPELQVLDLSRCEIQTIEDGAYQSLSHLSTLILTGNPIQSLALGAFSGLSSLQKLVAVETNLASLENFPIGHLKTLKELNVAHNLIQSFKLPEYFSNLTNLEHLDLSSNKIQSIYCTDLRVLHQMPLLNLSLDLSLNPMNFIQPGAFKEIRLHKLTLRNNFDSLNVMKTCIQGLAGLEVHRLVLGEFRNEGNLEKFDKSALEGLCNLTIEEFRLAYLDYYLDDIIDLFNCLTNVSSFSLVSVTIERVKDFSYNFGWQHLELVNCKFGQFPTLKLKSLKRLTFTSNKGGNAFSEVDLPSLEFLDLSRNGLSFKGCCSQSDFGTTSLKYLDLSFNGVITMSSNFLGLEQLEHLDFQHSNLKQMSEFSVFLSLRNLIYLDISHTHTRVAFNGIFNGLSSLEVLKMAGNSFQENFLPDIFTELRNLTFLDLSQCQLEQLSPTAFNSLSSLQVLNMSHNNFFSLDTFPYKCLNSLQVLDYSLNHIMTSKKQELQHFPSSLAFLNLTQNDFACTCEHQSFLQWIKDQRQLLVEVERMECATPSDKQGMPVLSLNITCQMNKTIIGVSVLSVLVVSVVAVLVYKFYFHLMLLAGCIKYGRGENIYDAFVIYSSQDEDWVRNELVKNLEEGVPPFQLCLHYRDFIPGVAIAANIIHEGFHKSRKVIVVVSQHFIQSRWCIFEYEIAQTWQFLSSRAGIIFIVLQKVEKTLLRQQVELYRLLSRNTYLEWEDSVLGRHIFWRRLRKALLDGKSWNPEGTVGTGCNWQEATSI
Xanthine dehydrogenase/oxidase, sequence (P47989 whole entry, the tested form may be a part): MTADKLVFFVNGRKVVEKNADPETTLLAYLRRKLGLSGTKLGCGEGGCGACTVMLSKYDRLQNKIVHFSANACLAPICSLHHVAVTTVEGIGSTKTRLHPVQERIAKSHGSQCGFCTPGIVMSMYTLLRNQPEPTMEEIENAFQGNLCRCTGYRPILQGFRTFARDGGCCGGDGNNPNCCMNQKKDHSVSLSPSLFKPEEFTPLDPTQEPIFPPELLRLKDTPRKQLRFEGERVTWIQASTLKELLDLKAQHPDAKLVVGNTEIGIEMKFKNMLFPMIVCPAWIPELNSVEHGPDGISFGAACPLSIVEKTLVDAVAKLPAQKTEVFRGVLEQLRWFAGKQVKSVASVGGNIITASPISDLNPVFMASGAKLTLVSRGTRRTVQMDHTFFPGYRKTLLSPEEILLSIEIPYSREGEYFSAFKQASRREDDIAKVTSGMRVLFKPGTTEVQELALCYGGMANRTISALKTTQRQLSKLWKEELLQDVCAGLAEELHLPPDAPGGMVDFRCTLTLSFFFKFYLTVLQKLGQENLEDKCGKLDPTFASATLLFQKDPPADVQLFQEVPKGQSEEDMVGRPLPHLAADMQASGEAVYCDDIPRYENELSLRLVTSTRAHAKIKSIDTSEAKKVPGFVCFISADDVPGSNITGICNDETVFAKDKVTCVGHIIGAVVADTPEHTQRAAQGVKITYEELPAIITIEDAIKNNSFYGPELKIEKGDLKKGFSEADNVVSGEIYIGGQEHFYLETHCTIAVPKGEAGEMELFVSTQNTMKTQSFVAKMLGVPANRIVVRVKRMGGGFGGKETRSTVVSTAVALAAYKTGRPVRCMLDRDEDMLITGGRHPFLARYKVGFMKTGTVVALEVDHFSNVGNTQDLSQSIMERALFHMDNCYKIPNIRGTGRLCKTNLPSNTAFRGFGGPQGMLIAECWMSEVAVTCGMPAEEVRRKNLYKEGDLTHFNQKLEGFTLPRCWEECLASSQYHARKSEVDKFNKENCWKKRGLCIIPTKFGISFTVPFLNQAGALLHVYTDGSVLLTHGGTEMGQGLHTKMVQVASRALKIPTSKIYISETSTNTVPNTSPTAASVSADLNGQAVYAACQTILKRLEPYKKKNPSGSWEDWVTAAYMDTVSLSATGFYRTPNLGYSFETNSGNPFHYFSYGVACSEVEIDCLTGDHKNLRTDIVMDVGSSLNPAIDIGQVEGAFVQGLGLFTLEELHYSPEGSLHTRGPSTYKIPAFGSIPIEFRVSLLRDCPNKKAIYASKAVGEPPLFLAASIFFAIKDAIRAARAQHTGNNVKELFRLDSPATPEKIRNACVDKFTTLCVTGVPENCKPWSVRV
NACHT, LRR and PYD domains-containing protein 3, sequence (Q96P20 whole entry, the tested form may be a part): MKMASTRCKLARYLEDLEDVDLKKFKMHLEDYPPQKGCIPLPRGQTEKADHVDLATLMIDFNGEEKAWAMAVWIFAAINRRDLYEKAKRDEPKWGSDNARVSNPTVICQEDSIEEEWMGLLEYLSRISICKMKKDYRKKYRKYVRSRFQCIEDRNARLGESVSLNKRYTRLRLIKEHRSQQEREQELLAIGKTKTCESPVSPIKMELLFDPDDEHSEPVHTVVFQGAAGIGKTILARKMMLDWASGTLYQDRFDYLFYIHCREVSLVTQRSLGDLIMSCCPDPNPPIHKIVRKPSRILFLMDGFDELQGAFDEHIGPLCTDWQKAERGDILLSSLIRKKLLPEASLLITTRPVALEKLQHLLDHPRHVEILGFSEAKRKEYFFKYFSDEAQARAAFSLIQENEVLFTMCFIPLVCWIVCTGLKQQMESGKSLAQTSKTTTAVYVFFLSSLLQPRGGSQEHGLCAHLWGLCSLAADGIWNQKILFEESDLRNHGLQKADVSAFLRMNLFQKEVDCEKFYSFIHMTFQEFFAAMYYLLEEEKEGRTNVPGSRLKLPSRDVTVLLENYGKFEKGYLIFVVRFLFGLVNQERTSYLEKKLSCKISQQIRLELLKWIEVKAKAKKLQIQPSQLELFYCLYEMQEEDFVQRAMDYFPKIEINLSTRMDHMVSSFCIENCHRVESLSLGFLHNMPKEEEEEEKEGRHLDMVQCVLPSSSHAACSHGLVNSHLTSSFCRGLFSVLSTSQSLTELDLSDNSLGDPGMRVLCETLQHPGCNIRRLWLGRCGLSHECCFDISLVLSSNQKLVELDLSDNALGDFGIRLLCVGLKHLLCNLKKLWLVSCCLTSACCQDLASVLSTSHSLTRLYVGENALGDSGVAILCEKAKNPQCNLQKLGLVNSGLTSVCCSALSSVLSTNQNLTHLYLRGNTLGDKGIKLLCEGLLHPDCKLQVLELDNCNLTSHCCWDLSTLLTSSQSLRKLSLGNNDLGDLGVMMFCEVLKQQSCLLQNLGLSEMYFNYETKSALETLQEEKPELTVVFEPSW

`COc1ccc(C/C(=N\O)c2nc3ccc(OC)cc3o2)cc1` gave a Ki [1] of 2.89 µM, an IC50 [2] of 1.22 µM and an IC50 [3] of 0.54 µM. For the same molecule, the inhibition [4] was “Dose-dependent effect”, the inhibition in vivo at 5 mg/kg [5] was 35.8% and the inhibition in vivo at 10 mg/kg [6] was 41.9%. The inhibition [7] was “Dose-dependent effect”, the inhibition at 2.5 mg/kg [8] was 3.7% and the inhibition at 5 mg/kg [9] was 6.8%. The inhibition at 10 mg/kg [10] was 10.2%, the Activity [11] was 2.65 cm and the Activity [12] was 2.7 cm. For the same molecule, the Activity [13] was 2.56 cm, the Activity [14] was 2.78 cm and the Activity [15] was 2.56 cm. The Activity [16] was 2.84 cm, the Activity [17] was 2.79 cm and the Activity [18] was 2.96 cm. It also gave an Activity [19] of 2.88 cm, an Activity [20] of 2.72 cm and an Activity [21] of 2.99 cm. For the same molecule, the Activity [22] was 2.97 cm, the Activity [23] was 2.73 cm and the inhibition [24] was “Active”. For the same molecule, the inhibition [25] was “Active”, the inhibition [26] was “Active” and the inhibition [27] was “Active”. For the same molecule, the inhibition [28] was “Active”, the inhibition [29] was “Active” and the inhibition [30] was “Active”.
